Source: patent publication US20070185149A1, “Novel amido-substituted hydroxy-6-phenylphenanthridines and their use as pde4 inhibtors” (ALTANA PHARMA AG, priority 2004, published 2007)

Target: T1, PDE4B2 (Homo sapiens, UniProt Q07343)
T1 construct: made in house; host or cells: SF21 insect cells (baculovirus; virus prepared in SF9 cells)
Experiment: Inhibition of PDE4 activity: PDE4B2 [3H]cAMP SPA enzyme assay
Format: biochemical
Conditions: recombinant PDE4B2 (SF21 cell supernatant), modified SPA test, 0.5 μM cAMP, 15 min at 37° C.; read-out: Inhibition of the PDE4 activity, −log IC50 (converted)
Description: The PDE4B2 (GB no. M97515) was a gift of Prof. M. Conti (Stanford University, USA). It was amplified from the original plasmid (pCMV5) via PCR with primers Rb9 (5′-[…]-3′) and Rb10 (5′-[…]-3′) and cloned into the pCR-Bac vector (Invitrogen, Groningen, NL).
The recombinant baculovirus was prepared by means of homologous recombination in SF9 insect cells.
The expression plasmid was cotransfected with Bac-N-Blue (Invitrogen, Groningen, NL) or Baculo-Gold DNA (Pharmingen, Hamburg) using a standard protocol (Pharmingen, Hamburg). Wt virus-free recombinant virus supernatant was selected using plaque assay methods. After that, high-titre virus supernatant was prepared by amplifying 3 times. PDE was expressed in SF21 cells by infecting 2×10^6 cells/ml with an MOI (multiplicity of infection) between 1 and 10 in serum-free SF900 medium (Life Technologies, Paisley, UK). The cells were cultured at 28° C. for 48-72 hours, after which they were pelleted for 5-10 min at 1000 g and 4° C.
The SF21 insect cells were resuspended, at a concentration of approx. 10^7 cells/ml, in ice-cold (4° C.) homogenization buffer (20 mM Tris, pH 8.2, containing the following additions: 140 mM NaCl, 3.8 mM KCl, 1 mM EGTA, 1 mM MgCl2, 10 mM β-mercaptoethanol, 2 mM benzamidine, 0.4 mM Pefablock, 10 μM leupeptin, 10 μM pepstatin A, 5 μM trypsin inhibitor) and disrupted by ultrasonication. The homogenate was then centrifuged for 10 min at 1000×g and the supernatant was stored at −80° C. until subsequent use (see below). The protein content was determined by the Bradford method (BioRad, Munich) using BSA as the standard.
PDE4B2 activity is inhibited by the said compounds in a modified SPA (scintillation proximity assay) test, supplied by Amersham Biosciences (see procedural instructions “phosphodiesterase [3H]cAMP SPA enzyme assay, code TRKQ 7090”), carried out in 96-well microtitre plates (MTP's). The test volume is 100 μl and contains 20 mM Tris buffer (pH 7.4), 0.1 mg of BSA (bovine serum albumin)/ml, 5 mM Mg^2+, 0.5 μM cAMP (including about 50,000 cpm of [3H]cAMP), 1 μl of the respective substance dilution in DMSO and sufficient recombinant PDE (1000×g supernatant, see above) to ensure that 10-20% of the cAMP is converted under the said experimental conditions. […] After a preincubation of 5 min at 37° C., the reaction is started by adding the substrate (cAMP) and the assay is incubated for a further 15 min; after that, it is stopped by adding SPA beads (50 μl). In accordance with the manufacturer's instructions, the SPA beads had previously been resuspended in water, but were then diluted 1:3 (v/v) in water; the diluted solution also contains 3 mM IBMX to ensure a complete PDE activity stop. After the beads have been sedimented (>30 min), the MTP's are analyzed in commercially available […]. The corresponding IC50 values of the compounds for the inhibition of PDE activity are determined from the concentration-effect curves by means of non-linear regression.

T1 sequence (Q07343 1-564 isoform Q07343-2): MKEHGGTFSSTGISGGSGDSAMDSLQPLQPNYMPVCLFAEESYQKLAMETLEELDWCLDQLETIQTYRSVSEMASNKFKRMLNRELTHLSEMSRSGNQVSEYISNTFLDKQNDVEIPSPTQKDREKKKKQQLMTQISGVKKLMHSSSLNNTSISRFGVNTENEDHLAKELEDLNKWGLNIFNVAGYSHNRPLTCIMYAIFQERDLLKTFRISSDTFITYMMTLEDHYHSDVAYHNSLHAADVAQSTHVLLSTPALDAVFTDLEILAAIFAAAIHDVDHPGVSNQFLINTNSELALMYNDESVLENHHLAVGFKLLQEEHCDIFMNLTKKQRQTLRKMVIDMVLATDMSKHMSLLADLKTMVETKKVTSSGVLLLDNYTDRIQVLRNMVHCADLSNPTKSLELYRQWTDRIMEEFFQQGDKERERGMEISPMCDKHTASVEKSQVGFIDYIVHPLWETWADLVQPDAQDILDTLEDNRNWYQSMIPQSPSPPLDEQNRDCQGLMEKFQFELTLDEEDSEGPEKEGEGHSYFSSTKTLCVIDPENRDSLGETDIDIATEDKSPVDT

IC50 | SMILES
0.955 to 8.71 nM | COc1cc2c(cc1OC(F)F)[C@H]1C[C@H](O)CC[C@H]1N=C2c1ccc(C(=O)N2CCN(CCN3CCOCC3)CC2)cc1 (racemic) [Compound 29, 1-{4-[(2RS,4aRS,10bRS)-9-(1,1-Difluoro-methoxy)-2-hydroxy-8-methoxy-1,2,3,4,4a,10b-hexahydro-phenanthridin-6-yl]-phenyl}-1-[4(2-morpholin-4-yl-ethyl)-piperazin-1-yl]-methanone]
0.955 to 8.71 nM | COc1cc2c(cc1OC)C1CC(O)CCC1N=C2c1ccc(C(=O)NCCCN2CCOCC2)cc1 (stereo not drawn) [Compound 2]
0.955 to 8.71 nM | COc1cc2c(cc1OC)[C@H]1C[C@H](O)CC[C@H]1N=C2c1ccc(C(=O)NNC(=O)N2CCOCC2)cc1 (racemic) [Compound 22, 4-((2RS,4aRS,10bRS)-2-Hydroxy-8,9-dimethoxy-1,2,3,4,4a,10b-hexahydro-phenanthridin-6-yl)benzoic acid N′-(1-morpholin-4-yl-methanoyl)-hydrazide]
0.955 to 8.71 nM | COc1cc2c(cc1OC)C1CC(O)CCC1N=C2c1ccc(C(=O)NCCN2CCOCC2)cc1 (stereo not drawn) [Compound 1]
0.955 to 8.71 nM | COc1cc2c(cc1OC)C1CC(O)CCC1N=C2c1ccc(C(=O)NN2CCOCC2)cc1 (stereo not drawn) [Compound 4]
0.955 to 8.71 nM | COc1cc2c(cc1OC(F)F)[C@H]1C[C@H](O)CC[C@H]1N=C2c1ccc(C(=O)N2CCN(c3ccncc3)CC2)cc1 (racemic) [Compound 30, 1-{4-[(2RS,4aRS,10bRS)-9-(1,1-Difluoro-methoxy)-2-hydroxy-8-methoxy-1,2,3,4,4a,10b-hexahydro-phenanthridin-6-yl]-phenyl}-1-(4-pyridin-4-yl-piperazin-1-yl)-methanone]
0.955 to 8.71 nM | COc1cc2c(cc1OC(F)F)[C@H]1C[C@H](O)CC[C@H]1N=C2c1ccc(C(=O)N2CCCC2)cc1 (racemic) [Compound 33, 1-{4-[(2RS,4aRS,10bRS)-9-(1,1-Difluoro-methoxy)-2-hydroxy-8-methoxy-1,2,3,4,4a,10b-hexahydro-phenanthridin-6-yl]-phenyl}-1-pyrrolidin-1-yl-methanone]
0.955 to 8.71 nM | COc1cc2c(cc1OC)[C@H]1C[C@H](O)CC[C@H]1N=C2c1ccc(C(=O)NCCc2ccncc2)cc1 (racemic) [Compound 20, 4-((2RS,4aRS,10bRS)-2-Hydroxy-8,9-dimethoxy-1,2,3,4,4a,10b-hexahydro-phenanthridin-6-yl)-N-(2-pyridin-4-yl-ethyl)-benzamide]
0.955 to 8.71 nM | COc1cc2c(cc1OC(F)F)[C@H]1C[C@H](O)CC[C@H]1N=C2c1ccc(C(=O)NCCN2CCOCC2)cc1 (racemic) [Compound 27, 4-[(2RS,4aRS,10bRS)-9-(1,1-Difluoro-methoxy)-2-hydroxy-8-methoxy-1,2,3,4,4a,10b-hexahydro-phenanthridin-6-yl]-N-(2-morpholin-4-yl-ethyl)-benzamide]
0.955 to 8.71 nM | COc1cc2c(cc1OC(F)F)C1CC(O)CCC1N=C2c1ccc(C(=O)N2CCN(CC(=O)N3CCOCC3)CC2)cc1 (stereo not drawn) [Compound 32, 2-[4-(1-{4-[(2RS,4aRS,10bRS)-9-(1,1-Difluoro-methoxy)-2-hydroxy-8-methoxy-1,2,3,4,4a,10bhexahydro-phenanthridin-6-yl]-phenyl}-methanoyl)-piperazin-1-yl]-1-morpholin-4-yl-ethanone]
0.955 to 8.71 nM | COc1ccc(NC(=O)c2ccc(C3=N[C@@H]4CC[C@@H](O)C[C@@H]4c4cc(OC)c(OC)cc43)cc2)c(OC)n1 (racemic) [Compound 23, N-(2,6-Dimethoxy-pyridin-3-yl)-4-((2RS,4aRS,10bRS)-2-hydroxy-8,9-dimethoxy-1,2,3,4,4a,10b-hexahydro-phenanthridin-6-yl)benzamide]
0.955 to 8.71 nM | COc1cc2c(cc1OC)[C@H]1C[C@H](O)CC[C@H]1N=C2c1ccc(C(=O)NCCc2ccccn2)cc1 (racemic) [Compound 7, 4-((2RS,4aRS,10bRS)-2-Hydroxy-8,9-dimethoxy-1,2,3,4,4a,10b-hexahydro-phenanthridin-6-yl)-N-(2-pyridin-2-yl-ethyl)-benzamide]
0.955 to 8.71 nM | COc1cc2c(cc1OC)C1CC(O)CCC1N=C2c1ccc(C(=O)N2CCN(c3ccccn3)CC2)cc1 (stereo not drawn) [Compound 8]
0.955 to 8.71 nM | CCN(CCOC)C(=O)c1ccc(C2=NC3CCC(O)CC3c3cc(OC)c(OC)cc32)cc1 (stereo not drawn) [Compound 10]
0.955 to 8.71 nM | COc1cc2c(cc1OC(F)F)[C@H]1C[C@H](O)CC[C@H]1N=C2c1ccc(C(=O)N2CCN(CC(=O)Nc3ccccn3)CC2)cc1 (racemic) [Compound 31, 2-[4(1-{4-[(2RS,4aRS,10bRS)-9-(1,1-Difluoro-methoxy)-2-hydroxy-8-methoxy-1,2,3,4,4a,10b-hexahydro-phenanthridin-6-yl]-phenyl}-methanoyl)-piperazin-1-yl]-N-pyridin-2-yl-acetamide]
